Measured values published in ChEMBL document CHEMBL5113420, “Selective inhibition of histone deacetylase 3 by novel hydrazide based small molecules as therapeutic intervention for the treatment of cancer” (Eur J Med Chem, 2022).
Values joined by “and” are separate entries in the source; they are usually repeats but may differ in a detail not shown here. Equal values may be shown once. Active and inactive are the calls of the source. No cut-off for these calls is given here.

Columns and labels:
[1] = Toxicity in Balb/c mouse implanted with mouse 4T1-luc cells assessed as weight loss at 15 mg/kg, ip; assay type: organism-based; conditions: in vivo
4T1 [2] = test: Induction of apoptosis in mouse 4T1 Luc cells implanted in Balb/c mouse downregulation of Bcl2 expression at 15 to 25 mg/kg incubated for 24 hrs by Western blot analysis; assay type: functional, organism-based; conditions: dose 15-25 mg/kg
[3] = Toxicity in Balb/c mouse implanted with mouse 4T1 Luc cells assessed as heart tissue damage at 15 mg/kg by H and E staining; assay type: organism-based; conditions: in vivo
4T1 [4] = test: Antitumor activity against mouse 4T1 Luc cells implanted in Balb/c mouse assessed as decrease in Ki-67 in tumor tissue at 15 to 25 mg/kg by immunohistochemical analysis; assay type: functional, organism-based; conditions: dose 15-25 mg/kg
[5] = AUC (0 to infinity) in Wistar rat at 15 mg/kg, iv measured upto 24 hrs by HPLC analysis; assay type: ADME, organism-based; design: time < 24 hrs, dose 15 mg/kg, route iv; conditions: in vivo
[6] = Apparent volume of distribution during terminal phase in Wistar rat at 15 mg/kg, ip measured upto 24 hrs by HPLC analysis; assay type: ADME, organism-based; conditions: in vivo
Mus musculus = test: Antitumor activity against mouse 4T1 Luc cells implanted in Balb/c mouse assessed as increase in animal survival at 15 mg/kg measured after 21 days; assay type: functional, organism-based; conditions: time 21.0 day
[7] = AUC (0 to infinity) in Wistar rat at 25 mg/kg, iv measured upto 24 hrs by HPLC analysis; assay type: ADME, organism-based; design: time < 24 hrs, dose 25 mg/kg, route iv; conditions: in vivo
4T1 [8] = test: Induction of apoptosis in mouse 4T1 Luc cells implanted in Balb/c mouse reduction in EGFR expression at 15 to 25 mg/kg incubated for 24 hrs by Western blot analysis; assay type: functional, organism-based; conditions: dose 15-25 mg/kg
[9] = Apparent volume of distribution during terminal phase in Wistar rat at 25 mg/kg, ip measured upto 24 hrs by HPLC analysis; assay type: ADME, organism-based; conditions: in vivo
[10] = AUCt in Wistar rat at 25 mg/kg, iv measured upto 24 hrs by HPLC analysis; assay type: ADME, organism-based; design: dose 25 mg/kg, time < 24 hrs, route iv; conditions: in vivo
[11] = AUCt in Wistar rat at 15 mg/kg, ip measured upto 24 hrs by HPLC analysis; assay type: ADME, organism-based; design: time < 24 hrs, dose 15 mg/kg, route ip; conditions: in vivo
4T1 [12] = test: Antitumor activity against mouse 4T1-luc cells Balb/c mouse assessed as reduction in tumor volume at 25 mg/kg, ip measured once 3 days for 21 days (reference value: 49.16 to 1032.50 mm^3); assay type: functional; conditions: time 3 day
4T1 [13] = test: Induction of apoptosis in mouse 4T1 Luc cells implanted in Balb/c mouse assessed as increase in cytochrome c level at 15 to 25 mg/kg incubated for 24 hrs by Western blot analysis; assay type: functional, organism-based; conditions: dose 15-25 mg/kg
[14] = Toxicity in Balb/c mouse implanted with mouse 4T1-luc cells assessed as mortality at 15 to 25 mg/kg, ip; assay type: organism-based; conditions: in vivo, dose 15-25 mg/kg
[15] = MRT in Wistar rat at 15 mg/kg, ip measured upto 24 hrs by HPLC analysis; assay type: ADME, organism-based; conditions: in vivo
4T1 [16] = test: Induction of apoptosis in mouse 4T1 Luc cells implanted in Balb/c mouse assessed as upregulation of caspase 7 level at 15 to 25 mg/kg incubated for 24 hrs by Western blot analysis; assay type: functional, organism-based; conditions: dose 15-25 mg/kg
[17] = Toxicity in Balb/c mouse implanted with mouse 4T1 Luc cells assessed as kidney tissue damage at 15 mg/kg by H and E staining; assay type: organism-based; conditions: in vivo
4T1 [18] = test: Induction of apoptosis in mouse 4T1 Luc cells implanted in Balb/c mouse assessed as upregulation of caspase 3 level at 15 to 25 mg/kg incubated for 24 hrs by Western blot analysis; assay type: functional, organism-based; conditions: dose 15-25 mg/kg
[19] = Cmax in Wistar rat at 15 mg/kg, iv measured upto 24 hrs by HPLC analysis; assay type: ADME, organism-based; design: time < 24 hrs, dose 15 mg/kg, route iv; conditions: in vivo
4T1 [20] = test: Induction of apoptosis in mouse 4T1 Luc cells implanted in Balb/c mouse assessed as increase in ROS generation at 15 mg/kg by fluorescent microscopy analysis; assay type: functional, organism-based
[21] = Half life in Wistar rat at 15 mg/kg, iv measured upto 24 hrs by HPLC analysis; assay type: ADME, organism-based; conditions: in vivo
[22] = MRT in Wistar rat at 15 mg/kg, iv measured upto 24 hrs by HPLC analysis; assay type: ADME, organism-based; conditions: in vivo
4T1 [23] = test: Induction of intracellular ROS generation in mouse 4T1 Luc cells implanted in Balb/c mouse assessed as increase fluorescence intensity at 15 mg/kg measured after 21 days by DCFH-DA probe based fluorescent microscopy analysis; assay type: functional, organism-based; conditions: time 21.0 day
4T1 [24] = test: Induction of apoptosis in mouse 4T1 Luc cells implanted in Balb/c mouse assessed as increase in ROS generation at 25 mg/kg by fluorescent microscopy analysis; assay type: functional, organism-based
[25] = Half life in Wistar rat at 15 mg/kg, ip measured upto 24 hrs by HPLC analysis; assay type: ADME, organism-based; conditions: in vivo
[26] = Toxicity in Balb/c mouse implanted with mouse 4T1 Luc cells assessed as liver tissue damage at 15 mg/kg by H and E staining; assay type: organism-based; conditions: in vivo
[27] = AUC (0 to infinity) in Wistar rat at 15 mg/kg, ip measured upto 24 hrs by HPLC analysis; assay type: ADME, organism-based; design: time < 24 hrs, dose 15 mg/kg, route ip; conditions: in vivo
[28] = Cmax in Wistar rat at 25 mg/kg, iv measured upto 24 hrs by HPLC analysis; assay type: ADME, organism-based; design: dose 25 mg/kg, time < 24 hrs, route iv; conditions: in vivo
[29] = Tmax in Wistar rat at 15 mg/kg, iv measured upto 24 hrs by HPLC analysis; assay type: ADME, organism-based; conditions: in vivo
[30] = MRT in Wistar rat at 25 mg/kg, iv measured upto 24 hrs by HPLC analysis; assay type: ADME, organism-based; conditions: in vivo
[31] = Tmax in Wistar rat at 25 mg/kg, iv measured upto 24 hrs by HPLC analysis; assay type: ADME, organism-based; conditions: in vivo
[32] = Half life in Wistar rat at 25 mg/kg, iv measured upto 24 hrs by HPLC analysis; assay type: ADME, organism-based; conditions: in vivo
[33] = Toxicity in Balb/c mouse implanted with mouse 4T1 Luc cells assessed as lung tissue damage at 15 mg/kg by H and E staining; assay type: organism-based; conditions: in vivo
4T1 [34] = test: Antitumor activity against mouse 4T1 Luc cells implanted in Balb/c mouse assessed as reduction in metastasis at 15 to 25 mg/kg measured after 21 days by Kaplan-Meier method; assay type: functional, organism-based; conditions: dose 15-25 mg/kg, time 21.0 day
[35] = Tmax in Wistar rat at 15 mg/kg, ip measured upto 24 hrs by HPLC analysis; assay type: ADME, organism-based; conditions: in vivo
4T1 [36] = test: Antitumor activity against mouse 4T1 Luc cells implanted in Balb/c mouse assessed as increase in fluorescence at 25 mg/kg using luciferin-D as substrate at 100 mg/kg, ip measured on day 10 and 21 by IVIS Lumina III analysis; assay type: functional, organism-based
[37] = AUCt in Wistar rat at 15 mg/kg, iv measured upto 24 hrs by HPLC analysis; assay type: ADME, organism-based; design: time < 24 hrs, dose 15 mg/kg, route iv; conditions: in vivo

Q: With CCCNNC(=O)c1ccc(Nc2ccccc2)cc1 as the compound, how does the Activity [1] read?
A: The Activity was “Non-Toxic”.

Q: And the Activity (4T1 [2])?
A: Its Activity is “Active”.

Q: What about the Activity [3] of the same compound?
A: The Activity was “Non-Toxic”.

Q: And the Activity (4T1 [4])?
A: Its Activity is “Active”.

Q: And the AUC(0-inf) [5]?
A: Its AUC(0-inf) is 160000 ng·h/mL and 593 µM·h.

Q: And the Vz/F [6]?
A: The Vz/F was 2.16 (mg/kg)/(ug/ml) and 1.44 (mg/kg)/(uM).

Q: What about the Activity (Mus musculus) of the same compound?
A: Its Activity is “Active”.

Q: What about the AUC(0-inf) [7] of the same compound?
A: The AUC(0-inf) was 200000 ng·h/mL and 744 µM·h.

Q: What about the Activity (4T1 [8]) of the same compound?
A: Its Activity is “Active”.

Q: And the Vz/F [9]?
A: Its Vz/F is 3.27 (mg/kg)/(ug/ml) and 2.01 (mg/kg)/(uM).

Q: What about the AUC(0-t) at 24 h [10] of the same compound?
A: The AUC(0-t) at 24 h was 200000 ng·h/mL and 742 µM·h.

Q: And the AUC(0-t) at 24 h [11]?
A: The AUC(0-t) at 24 h was 28900 ng·h/mL and 107 µM·h.

Q: What about the Activity (4T1 [12]) of the same compound?
A: The Activity was 51.83 mm3.

Q: And the Activity (4T1 [13])?
A: Its Activity is “Active”.

Q: And the Activity [14]?
A: The Activity was “Non-Toxic”.

Q: And the MRT [15]?
A: The MRT was 4.16 h.

Q: What about the Activity (4T1 [16]) of the same compound?
A: The Activity was “Active”.

Q: And the Activity [17]?
A: The Activity was “Non-Toxic”.

Q: What about the Activity (4T1 [18]) of the same compound?
A: Its Activity is “Active”.

Q: What about the Cmax [19] of the same compound?
A: The Cmax was 26700 ng/mL and 99.3 µM.

Q: And the Activity (4T1 [20])?
A: Its Activity is “Active”.

Q: And the half-life [21]?
A: Its half-life is 2.19 h.

Q: And the MRT [22]?
A: Its MRT is 5.69 h.

Q: And the Activity (4T1 [23])?
A: Its Activity is “Active”.

Q: And the Activity (4T1 [24])?
A: The Activity was “Active”.

Q: What about the half-life [25] of the same compound?
A: The half-life was 3.41 h.

Q: What about the Activity [26] of the same compound?
A: Its Activity is “Non-Toxic”.

Q: What about the AUC(0-inf) [27] of the same compound?
A: The AUC(0-inf) was 29300 ng·h/mL and 109 µM·h.

Q: What about the Cmax [28] of the same compound?
A: The Cmax was 32100 ng/mL and 120 µM.

Q: What about the Tmax [29] of the same compound?
A: The Tmax was 0.5 h.

Q: And the MRT [30]?
A: Its MRT is 5.13 h.

Q: What about the Tmax [31] of the same compound?
A: Its Tmax is 0.5 h.

Q: And the half-life [32]?
A: The half-life was 2.62 h.

Q: And the Activity [33]?
A: Its Activity is “Non-Toxic”.

Q: And the Activity (4T1 [34])?
A: Its Activity is “Active”.

Q: And the Tmax [35]?
A: Its Tmax is 2 h.

Q: What about the Activity (4T1 [36]) of the same compound?
A: The Activity was “Active”.

Q: What about the AUC(0-t) at 24 h [37] of the same compound?
A: Its AUC(0-t) at 24 h is 159000 ng·h/mL and 592 µM·h.
